Data taken from patent publication US11000033B2, “Ketone or oxime compound, and herbicide” (NISSAN CHEMICAL CORPORATION, priority 2014, dated 2021).

Legend:
Assay type in all cases: in vivo
transplanted rice plant = test: Test Example 1: effect on crop, application before weed generation in submerged conditions (symbol a); conditions: application herbicide amount 320 g/ha
How it was run: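 Rice at 2.5 leaf stage transplanted into submerged soil (4 cm depth) sown with three weed species; herbicide applied before weed emergence.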

[1] = tested on: Echinochloa crus-galli var. crus-galli; test: Test Example 3: herbicidal effect by foliage application, Wagner pot (symbol H); conditions: application herbicide amount 320 g/ha
How it was run: (§1)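 Herbicidal activity was rated three weeks after a foliar spray of diluted emulsion concentrate, applied at a predetermined dose to plants grown for 14 days from seed in waterlogged alluvial soil within a 25–30 °C greenhouse.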

Leptochloa chinensis = test: Test Example 3: herbicidal effect by foliage application, Wagner pot (symbol D); conditions: application herbicide amount 320 g/ha
How it was run: as §1

[2] = tested on: directly sowed rice plant; test: Test Example 3: effect on crop by foliage application, Wagner pot (symbol b); conditions: application herbicide amount 320 g/ha
How it was run: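 Greenhouse culture at 25–30 °C of seeded rice, Cyperus difformis, Leptochloa chinensis and Echinochloa crus-galli var. crus-galli, in alluvial soil held under 0.1–0.5 cm of water in a Wagner pot.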

Digitaria ciliaris = test: Test Example 4: herbicidal effect by soil treatment (symbol F); conditions: application herbicide amount 320 g/ha
How it was run: (§2)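 Seeds were sown in sterilized diluvial soil, covered with about 1.5 cm of soil, and the soil surface was sprayed with a water-diluted emulsion of the compound at a predetermined rate. Plants grew in a greenhouse at 25° C. to 30° C.; effects were scored visually 3 weeks after application.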

Lolium multiflorum Lam. = test: Test Example 4: herbicidal effect by soil treatment (symbol K); conditions: application herbicide amount 320 g/ha
How it was run: as §2

Abutilon theophrasti [3] = test: Test Example 4: herbicidal effect by soil treatment (symbol M); conditions: application herbicide amount 320 g/ha
How it was run: as §2

Amaranthus retroflexus = test: Test Example 4: herbicidal effect by soil treatment (symbol N); conditions: application herbicide amount 320 g/ha
How it was run: as §2

Chenopodium album = test: Test Example 4: herbicidal effect by soil treatment (symbol O); conditions: application herbicide amount 320 g/ha
How it was run: as §2

Stellaria media [4] = test: Test Example 4: herbicidal effect by soil treatment (symbol P); conditions: application herbicide amount 320 g/ha
How it was run: as §2

Galium spurium = test: Test Example 4: herbicidal effect by soil treatment (symbol Q); conditions: application herbicide amount 320 g/ha
How it was run: as §2

Veronica persica = test: Test Example 4: herbicidal effect by soil treatment (symbol R); conditions: application herbicide amount 320 g/ha
How it was run: as §2

Setaria viridis [5] = test: Test Example 5: herbicidal effect by foliage application, plastic box (symbol G); conditions: 320 g/ha, 3 weeks after application
How it was run: (§3)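 Herbicide, formulated as an emulsion and diluted in water, is sprayed onto the aerial parts of 14-day seedlings. These were grown at 25° C. to 30° C. in sterilized diluvial soil; effects are graded after 3 weeks.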

[6] = tested on: Echinochloa crus-galli var. crus-galli; test: Test Example 5: herbicidal effect by foliage application, plastic box (symbol H); conditions: 320 g/ha, 3 weeks after application
How it was run: as §3

Avena fatua = test: Test Example 5: herbicidal effect by foliage application, plastic box (symbol I); conditions: 320 g/ha, 3 weeks after application
How it was run: as §3

Apera spica-venti = test: Test Example 5: herbicidal effect by foliage application, plastic box (symbol L); conditions: 320 g/ha, 3 weeks after application
How it was run: as §3

Abutilon theophrasti [7] = test: Test Example 5: herbicidal effect by foliage application, plastic box (symbol M); conditions: 320 g/ha, 3 weeks after application
How it was run: as §3

Stellaria media [8] = test: Test Example 5: herbicidal effect by foliage application, plastic box (symbol P); conditions: 320 g/ha, 3 weeks after application
How it was run: as §3

rice plant = test: Test Example 5: effect on crop by foliage application, plastic box (symbol b); conditions: 320 g/ha, 3 weeks after application
How it was run: (§4)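 Soil: sterilized diluvial. Container: plastic box, 21 × 13 cm, 7 cm deep. Sowing: spot-like, ~1.5 cm cover. Growth: greenhouse, 25° C. to 30° C.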

beet = test: Test Example 5: effect on crop by foliage application, plastic box (symbol f); conditions: 320 g/ha, 3 weeks after application
How it was run: as §4

rapeseed = test: Test Example 5: effect on crop by foliage application, plastic box (symbol g); conditions: 320 g/ha, 3 weeks after application
How it was run: as §4

Setaria viridis [9] = test: Test Example 4: herbicidal effect by soil treatment (symbol G); conditions: application herbicide amount 320 g/ha
How it was run: as §2

## CON=C(C)CC1CC(O)=C(c2c(C)cc(-c3ccsc3)cc2C)C1=O (stereo not drawn) [6-106]
Transplanted rice plant
  Effect grade on crop, a: transplanted rice plant: 5 (Herbicidal ratio of 90% or more (almost completely withered))
[1]
  herbicidal effect on H (Echinochloa crus-galli var. crus-galli), grade 0-5: 4 (Herbicidal ratio of 70% or higher and lower than 90%)
Leptochloa chinensis
  herbicidal effect on D (Leptochloa chinensis), grade 0-5: 5 (Herbicidal ratio of 90% or more (almost completely withered))
[2]
  effect on crop b (directly sowed rice plant), grade 0-5: 5 (Herbicidal ratio of 90% or more (almost completely withered))
Digitaria ciliaris
  Herbicidal effect grade, F: Digitaria ciliaris: 5 (Herbicidal ratio of 90% or more (almost completely withered))
Lolium multiflorum Lam.
  Herbicidal effect grade, K: Lolium multiflorum Lam.: 3 (Herbicidal ratio of 40% or higher and lower than 70%)
Abutilon theophrasti [3]
  Herbicidal effect grade, M: Abutilon theophrasti: 0 (Herbicidal ratio of 5% or lower (almost no effect))
Amaranthus retroflexus
  Herbicidal effect grade, N: Amaranthus retroflexus: 0 (Herbicidal ratio of 5% or lower (almost no effect))
Chenopodium album
  Herbicidal effect grade, O: Chenopodium album: 0 (Herbicidal ratio of 5% or lower (almost no effect))
Stellaria media [4]
  Herbicidal effect grade, P: Stellaria media: 0 (Herbicidal ratio of 5% or lower (almost no effect))
Galium spurium
  Herbicidal effect grade, Q: Galium spurium: 0 (Herbicidal ratio of 5% or lower (almost no effect))
Veronica persica
  Herbicidal effect grade, R: Veronica persica: 0 (Herbicidal ratio of 5% or lower (almost no effect))
Setaria viridis [5]
  G: Setaria viridis, herbicidal effect (criteria of Test Example 1): 5 (Herbicidal ratio of 90% or more (almost completely withered))
[6]
  H: Echinochloa crus-galli var. crus-galli, herbicidal effect (criteria of Test Example 1): 5 (Herbicidal ratio of 90% or more (almost completely withered))
Avena fatua
  I: Avena fatua, herbicidal effect (criteria of Test Example 1): 3 (Herbicidal ratio of 40% or higher and lower than 70%)
Apera spica-venti
  L: Apera spica-venti, herbicidal effect (criteria of Test Example 1): 5 (Herbicidal ratio of 90% or more (almost completely withered))
Abutilon theophrasti [7]
  M: Abutilon theophrasti, herbicidal effect (criteria of Test Example 1): 0 (Herbicidal ratio of 5% or lower (almost no effect))
Stellaria media [8]
  P: Stellaria media, herbicidal effect (criteria of Test Example 1): 3 (Herbicidal ratio of 40% or higher and lower than 70%)
Rice plant
  b: directly sowed rice plant, effect on crop (criteria of Test Example 1): 3 (Herbicidal ratio of 40% or higher and lower than 70%)
beet
  f: beet, effect on crop (criteria of Test Example 1): 0 (Herbicidal ratio of 5% or lower (almost no effect))
rapeseed
  g: rapeseed, effect on crop (criteria of Test Example 1): 5 (Herbicidal ratio of 90% or more (almost completely withered))

## CON=C(C)CC1CC(O)=C(c2c(F)cc(-c3ccccc3)cc2OC)C1=O (stereo not drawn) [6-107]
Transplanted rice plant
  Effect grade on crop, a: transplanted rice plant: 5 (Herbicidal ratio of 90% or more (almost completely withered))
[1]
  herbicidal effect on H (Echinochloa crus-galli var. crus-galli), grade 0-5: 5 (Herbicidal ratio of 90% or more (almost completely withered))
Leptochloa chinensis
  herbicidal effect on D (Leptochloa chinensis), grade 0-5: 5 (Herbicidal ratio of 90% or more (almost completely withered))
[2]
  effect on crop b (directly sowed rice plant), grade 0-5: 5 (Herbicidal ratio of 90% or more (almost completely withered))
Digitaria ciliaris
  Herbicidal effect grade, F: Digitaria ciliaris: 5 (Herbicidal ratio of 90% or more (almost completely withered))
Setaria viridis [9]
  Herbicidal effect grade, G: Setaria viridis: 5 (Herbicidal ratio of 90% or more (almost completely withered))
Lolium multiflorum Lam.
  Herbicidal effect grade, K: Lolium multiflorum Lam.: 1 (Herbicidal ratio of 5% or higher and lower than 20%)
Abutilon theophrasti [3]
  Herbicidal effect grade, M: Abutilon theophrasti: 4 (Herbicidal ratio of 70% or higher and lower than 90%)
Chenopodium album
  Herbicidal effect grade, O: Chenopodium album: 4 (Herbicidal ratio of 70% or higher and lower than 90%)
Stellaria media [4]
  Herbicidal effect grade, P: Stellaria media: 2 (Herbicidal ratio of 20% or higher and lower than 40%)
Galium spurium
  Herbicidal effect grade, Q: Galium spurium: 2 (Herbicidal ratio of 20% or higher and lower than 40%)
Veronica persica
  Herbicidal effect grade, R: Veronica persica: 4 (Herbicidal ratio of 70% or higher and lower than 90%)
Setaria viridis [5]
  G: Setaria viridis, herbicidal effect (criteria of Test Example 1): 5 (Herbicidal ratio of 90% or more (almost completely withered))
[6]
  H: Echinochloa crus-galli var. crus-galli, herbicidal effect (criteria of Test Example 1): 5 (Herbicidal ratio of 90% or more (almost completely withered))
Avena fatua
  I: Avena fatua, herbicidal effect (criteria of Test Example 1): 5 (Herbicidal ratio of 90% or more (almost completely withered))
Apera spica-venti
  L: Apera spica-venti, herbicidal effect (criteria of Test Example 1): 5 (Herbicidal ratio of 90% or more (almost completely withered))
Abutilon theophrasti [7]
  M: Abutilon theophrasti, herbicidal effect (criteria of Test Example 1): 3 (Herbicidal ratio of 40% or higher and lower than 70%)
Stellaria media [8]
  P: Stellaria media, herbicidal effect (criteria of Test Example 1): 2 (Herbicidal ratio of 20% or higher and lower than 40%)
Rice plant
  b: directly sowed rice plant, effect on crop (criteria of Test Example 1): 5 (Herbicidal ratio of 90% or more (almost completely withered))
beet
  f: beet, effect on crop (criteria of Test Example 1): 2 (Herbicidal ratio of 20% or higher and lower than 40%)
rapeseed
  g: rapeseed, effect on crop (criteria of Test Example 1): 4 (Herbicidal ratio of 70% or higher and lower than 90%)

## CON=C(C)C(C)C1CC(O)=C(c2c(C)cc(Br)cc2OC)C1=O (stereo not drawn) [6-113]
Transplanted rice plant
  Effect grade on crop, a: transplanted rice plant: 5 (Herbicidal ratio of 90% or more (almost completely withered))
[1]
  herbicidal effect on H (Echinochloa crus-galli var. crus-galli), grade 0-5: 5 (Herbicidal ratio of 90% or more (almost completely withered))
Leptochloa chinensis
  herbicidal effect on D (Leptochloa chinensis), grade 0-5: 5 (Herbicidal ratio of 90% or more (almost completely withered))
[2]
  effect on crop b (directly sowed rice plant), grade 0-5: 5 (Herbicidal ratio of 90% or more (almost completely withered))
Digitaria ciliaris
  Herbicidal effect grade, F: Digitaria ciliaris: 5 (Herbicidal ratio of 90% or more (almost completely withered))
Setaria viridis [9]
  Herbicidal effect grade, G: Setaria viridis: 5 (Herbicidal ratio of 90% or more (almost completely withered))
Lolium multiflorum Lam.
  Herbicidal effect grade, K: Lolium multiflorum Lam.: 5 (Herbicidal ratio of 90% or more (almost completely withered))
Amaranthus retroflexus
  Herbicidal effect grade, N: Amaranthus retroflexus: 0 (Herbicidal ratio of 5% or lower (almost no effect))
Chenopodium album
  Herbicidal effect grade, O: Chenopodium album: 0 (Herbicidal ratio of 5% or lower (almost no effect))
Stellaria media [4]
  Herbicidal effect grade, P: Stellaria media: 0 (Herbicidal ratio of 5% or lower (almost no effect))
Galium spurium
  Herbicidal effect grade, Q: Galium spurium: 0 (Herbicidal ratio of 5% or lower (almost no effect))
Veronica persica
  Herbicidal effect grade, R: Veronica persica: 0 (Herbicidal ratio of 5% or lower (almost no effect))
Setaria viridis [5]
  G: Setaria viridis, herbicidal effect (criteria of Test Example 1): 5 (Herbicidal ratio of 90% or more (almost completely withered))
[6]
  H: Echinochloa crus-galli var. crus-galli, herbicidal effect (criteria of Test Example 1): 5 (Herbicidal ratio of 90% or more (almost completely withered))
Avena fatua
  I: Avena fatua, herbicidal effect (criteria of Test Example 1): 5 (Herbicidal ratio of 90% or more (almost completely withered))
Apera spica-venti
  L: Apera spica-venti, herbicidal effect (criteria of Test Example 1): 5 (Herbicidal ratio of 90% or more (almost completely withered))
Abutilon theophrasti [7]
  M: Abutilon theophrasti, herbicidal effect (criteria of Test Example 1): 0 (Herbicidal ratio of 5% or lower (almost no effect))
Stellaria media [8]
  P: Stellaria media, herbicidal effect (criteria of Test Example 1): 0 (Herbicidal ratio of 5% or lower (almost no effect))
Rice plant
  b: directly sowed rice plant, effect on crop (criteria of Test Example 1): 5 (Herbicidal ratio of 90% or more (almost completely withered))
beet
  f: beet, effect on crop (criteria of Test Example 1): 0 (Herbicidal ratio of 5% or lower (almost no effect))
rapeseed
  g: rapeseed, effect on crop (criteria of Test Example 1): 4 (Herbicidal ratio of 70% or higher and lower than 90%)
